One data set deals with NMDA receptor (Rattus norvegicus, UniProt P35439). The data set can be described thus: [^3H] MK-801 binding assay. The following applies: for Emax: read-out: Efficacy (% Increase in [^3H] MK-801 Binding).
Data set [1] has as its system MDCK (Madin-Darby Canine Kidney Cells). The data set can be described thus: in vitro. The following applies: concentration 5 μM; for Papp (10^−6 cm/sec): HBSS pH 7.4. As to the method: Procedure. Permeability of test compounds was assessed using MDCK (Madin-Darby Canine Kidney Cells) using the below parameters. • Test concentration: 5 μM (n=3) • Buffer: HBSS pH 7.4 • Time points: 0, 15, 30, 60 and 90 min • Analysis: Parent compound monitoring using LC-MS/MS

Data set [2] can be described thus: Metabolic stability in liver microsomes, rat. It is filed as in vitro ADME. The following applies: Rat (M) microsomes, 1 μM. As to the method:
(§1) Metabolic stability was assessed in liver microsomes as well as in hepatocytes with few compounds.
(§2) Procedure for microsomal stability: • Species: Rat and human • Test concentration: 1 μM (n=2) • Protein concentration: 0.125 mg/mL • Time points: 0, 5, 15, 30 and 60 minutes • Controls: Minus NADPH and buffer • Analysis: Parent compound monitoring LC-MS/MS (Peak area ratios)

Data set [3] is described as follows: Metabolic stability in liver microsomes, human. Format: in vitro ADME. The note with it: Human (M) microsomes, 1 μM. As for the experimental part: as §1, §2
(Microsomes from liver hold many membrane-bound enzymes, among them those of drug oxidation.)

Data set [4] can be described thus: Kinetic aqueous solubility (pION method). Format: physicochemical. The note with it: pH 7.4, conc. tested 200 μM with 1% DMSO, 16 h incubation.
The nature of data set [5]: Metabolic stability in hepatocytes, rat. It is filed as in vitro ADME. The following applies: Rat (H) hepatocytes, 10 μM. As to the method: as §1
(§3) Procedure for hepatocyte stability: • Stock preparation: DMSO • Buffer: Krebs Henseleit Buffer • Total Incubation volume: […] • Cell density: 1 million cells/mL • Test concentration: 10 μM with 0.5% DMSO (n=2) • Time points: 0 and 60 min • Analysis: LC-MS/MS

Data set [6] deals with floating behavior. Description: Porsolt test procedure 2. Format: in vivo, Sprague Dawley rats. The note with it: single dose (0.3 mg/kg IV), 24 hrs post-dosing, FIG. 11C.
The test system of data set [7] is Schaffer collateral-evoked NMDA EPSCs in CA1 pyramidal neurons. The data set can be described thus: Long-term potentiation (LTP) assay procedure 2. It is filed as cell-based, Sprague-Dawley rats. The following applies: 1 μM, FIG. 8, P<0.05. As for the experimental part:
Assays were conducted as described in Zhang et al. (2008). Sprague-Dawley rats (12-18 days old; Taconic Farms) were deeply anesthetized with isoflurane and decapitated. Brains was removed rapidly, submerged in ice-cold artificial cerebrospinal fluid (ACSF, 2-4° C.), which contained (in mM): 124 NaCl, 4 KCl, 2 MgSO4, 2 CaC12, 1.25 NaH2PO4, 26 NaHCO3, 10 glucose; at pH 7.4, gassed continuously with 95% O2/5% CO2). Brains were hemisected, the frontal lobes cut off, and individual hemispheres glued using cyanoacrylate adhesive onto a stage immersed in ice-cold ACSF gassed continuously with 95% O2/5% CO2 during slicing. […] Bath application of test compounds (1 μM) was applied 30 min prior to application of Schaffer collateral stimulus trains to elicit LTP. LTP was induced by stimulation of Schaffer collateral axons with four high frequency theta burst stimulus trains of 10×100 Hz/5 pulse bursts each, applied at an inter-burst interval of 200 ms. Each train was 2 s in duration, and trains were applied 15 s apart.

In data set [8] the test system is floating behavior. The data set can be described thus: Porsolt test procedure 2. Format: in vivo, Sprague Dawley rats. The following applies: 1 hr post-dosing. As for the experimental part: The antidepressant-like effects of test compounds were examined with the rat Porsolt test as described in Page et al. (1999) and Burgdorf et al. (2009). Male Sprague Dawley rats (2-3 month old) were used in this study. Animals were dosed with test compounds (0.3 mg/kg IV) or sterile saline vehicle (1 ml/kg IV tail vein) 1 hr before a single test session. […] Water was changed after every other animal. […] CM-6A, CM-7A, CM-8A, and CM-9A were tested in the Porsolt test. CM-5A was not tested in the Porsolt test.
Animals received a single 15 min Porsolt habituation session on the day before the first 5 min Porsolt test. N=6 per group. *P<0.05 Fisher's PLSD post hoc test vs. vehicle.

Data set [9] is described as follows: Metabolic stability in hepatocytes, human. Format: in vitro ADME. The following applies: Human (H) hepatocytes, 10 μM. As to the method:
as §1, §3

[10] abbreviates: single dose 0.3 mg/kg IV, FIG. 11A.
[11] abbreviates: single dose (0.3 mg/kg IV), FIG. 11B.

This is an account of results in US20150051262A1, “NMDA RECEPTOR MODULATORS AND USES THEREOF” (Northwestern University, priority 2011, published 2015).

Like-named read-outs stand apart in the source and are kept apart here. Residues, ends and D or L forms follow the SMILES beside them.

For orientation: EC50 means the concentration needed to bring the measured effect to its halfway point.

As for `C[C@@H](O)[C@H](NC(=O)[C@@H]1CCCN1C(=O)[C@@H]1CCCN1C(=O)[C@@H](N)CO)C(N)=O` [CM-1, (S)-N-((2S,3R)-1-amino-3-hydroxy-1-oxobutan-2-yl)-1-((S)-1-((S)-2-amino-3-hydroxypropanoyl)pyrrolidine-2-carbonyl)pyrrolidine-2-carboxamide] (H-SPPT-NH2), the EC50 on NMDA receptor was 0.005 nM.

As to `C[C@@H](O)[C@H](N)C(=O)N1CCC[C@H]1C(=O)N1CCC[C@H]1C(=O)N[C@@H](CO)C(N)=O` [CM-2, (S)-N-((S)-1-amino-3-hydroxy-1-oxopropan-2-yl)-1-((S)-1-((2S,3R)-2-amino-3-hydroxybutanoyl)pyrrolidine-2-carbonyl) pyrrolidine-2-carboxamide] (H-TPPS-NH2), the “Efficacy (% Increase in [^3H] MK-801 Binding)” value on NMDA receptor (best-fit top value, 50 μM glutamate) amounted to 24%. Besides, the EC50 at NMDA receptor (rat forebrain membranes, 50 μM glutamate, read-out: Potency (EC50)) is 0.006 nM.

With `NC(=O)[C@H](CO)NC(=O)[C@@H]1CCCN1C(=O)[C@@H]1CCCN1C(=O)[C@@H](N)CO` [CM-3, (S)-N-((S)-1-amino-3-hydroxy-1-oxopropan-2-yl)-1-((S)-1-((S)-2-amino-3-hydroxy-propanoyl)-pyrrolidine-2-carbonyl)-pyrrolidine-2-carboxamide] (H-SPPS-NH2), the response at NMDA receptor was half-maximal at 0.016 nM (EC50).

For the molecule `Cc1ccc(C[C@@]2(C(=O)N[C@H](C(N)=O)[C@@H](C)O)CCCN2C(=O)[C@@H]2CCCN2C(=O)[C@@H](N)[C@@H](C)O)cc1` [CM-5A, (R)-N-((2S,3R)-1-amino-3-hydroxy-1-oxobutan-2-yl)-1-((S)-1-((2S,3R)-2-amino-3-hydroxybutanoyl)pyrrolidine-2-carbonyl)-2-(4-methylbenzyl) pyrrolidine-2-carboxamide], in [1], the Permeability classification result is “Low (≦3 × 10^−6 cm/sec)” and the Recovery came out at 100. For the same molecule, in data set [2], the “% Remaining at 60 minutes” value was 95%, the “Half-life” value is greater than 1 h and the “Stability Class” value is “Stable (% Remaining >90%)”. In addition, in [3], the “% Remaining at 60 minutes” value came to 86%, the “Half-life” value was greater than 1 h and the “Stability Class” value is “Moderate (% Remaining 70-90%)”. Also, the “Mean Solubility (N = 3) at pH” value in [4] is reported as greater than 200.

For `CC(O)C(N)C(=O)N1CCCC1C(=O)N1CCCC1(Cc1ccc(F)cc1)C(=O)NC(C(N)=O)C(C)O` (centres unmarked) [CM-6], at NMDA receptor, the Emax is 12%.

For `C[C@@H](O)[C@H](N)C(=O)N1CCC[C@H]1C(=O)N1CCC[C@@]1(Cc1ccc(C(F)(F)F)cc1)C(=O)N[C@H](C(N)=O)[C@@H](C)O` [CM-7A, (R)-N-((2S,3R)-1-amino-3-hydroxy-1-oxobutan-2-yl)-1-((S)-1-((2S,3R)-2-amino-3-hydroxybutanoyl)pyrrolidine-2-carbonyl)-2-(4-(trifluoromethyl)benzyl) pyrrolidine-2-carboxamide], in [1], the Permeability classification entry is on record as “Low (≦3 × 10^−6 cm/sec)”, the Recovery came to 68 and the “Papp (10^−6 cm/sec)” value is listed as 0.11 ± 0.0 10^−6 cm/sec. Moreover, in data set [5], the “% Remaining at 60 minutes” value turned out to be 76%, the “Half-life” value was greater than 1 h and the “Stability Class” value is listed as “Moderate (% Remaining 70-90%)”. Besides, the “floating time in the Porsolt test” value with floating behavior [6] was “produced an antidepressant-like effect”. In data set [7], the “long-term potentiation after high frequency stimulation (fEPSP slope)” value is listed as “increased long-term potentiation”. For the same molecule, the “floating time in the Porsolt test” value in the data set on floating behavior [8] (setting [10]) was “produced an antidepressant-like effect”. Moreover, in the data set on floating behavior [8] (setting [11]), the “floating time in the Porsolt test” value is recorded as “produced an antidepressant-like effect”. In addition, in [9], the “% Remaining at 60 minutes” value is 92%, the “Half-life” value is greater than 1 h and the “Stability Class” value was “Stable (% Remaining >90%)”.

Take `CC(O)C(N)C(=O)N1CCCC1C(=O)N1CCCC1(Cc1ccc(C(F)(F)F)cc1)C(=O)NC(C(N)=O)C(C)O` (centres unmarked) [CM-7]: on NMDA receptor, the EC50 is 10.6 nM and the Emax stood at 13%.

As for `Cc1cccc(C[C@@]2(C(=O)N[C@H](C(N)=O)[C@@H](C)O)CCCN2C(=O)[C@@H]2CCCN2C(=O)[C@@H](N)[C@@H](C)O)c1` [CM-8A, (R)-N-((2S,3R)-1-amino-3-hydroxy-1-oxobutan-2-yl)-1-((S)-1-((2S,3R)-2-amino-3-hydroxybutanoyl)pyrrolidine-2-carbonyl)-2-(3-methylbenzyl) pyrrolidine-2-carboxamide], in data set [1], the Permeability classification result is on record as “Low (≦3 × 10^−6 cm/sec)”, the Recovery was found to be 83 and the “Papp (10^−6 cm/sec)” value is 0.14 ± 0.01 10^−6 cm/sec. Further, in [2], the “% Remaining at 60 minutes” value is 91%, the “Half-life” value was greater than 1 h and the “Stability Class” value was “Stable (% Remaining >90%)”. In addition, the “floating time in the Porsolt test” value with floating behavior [6] was “produced an antidepressant-like effect”. For the same molecule, in data set [3], the “% Remaining at 60 minutes” value came out at 75%, the “Half-life” value is greater than 1 h and the “Stability Class” value is “Moderate (% Remaining 70-90%)”. Also, the “long-term potentiation after high frequency stimulation (fEPSP slope)” value in [7] is listed as “increased long-term potentiation”. Also, the “floating time in the Porsolt test” value in the data set on floating behavior [8] (setting [10]) is “produced an antidepressant-like effect”. Besides, the “floating time in the Porsolt test” value with floating behavior [8] (setting [11]) was “produced an antidepressant-like effect”. Further, in data set [4], the “Mean Solubility (N = 3) at pH” value is greater than 200.

In the case of `Cc1cccc(CC2(C(=O)NC(C(N)=O)C(C)O)CCCN2C(=O)C2CCCN2C(=O)C(N)C(C)O)c1` (centres unmarked) [CM-8], at NMDA receptor, the EC50 came to 0.006 nM and the Emax stood at 16%.

Take `CC(O)C(N)C(=O)N1CCCC1C(=O)N1CCCC1(Cc1cccc(F)c1)C(=O)NC(C(N)=O)C(C)O` (centres unmarked) [CM-9]: on NMDA receptor, the EC50 came out at 0.007 nM and the Emax amounted to 15%.

On to `C[C@@H](O)[C@H](NC(=O)C1(Cc2ccccc2)CCCN1C(=O)[C@@H]1CCCN1C(=O)[C@@H](N)CO)C(N)=O` (stereo partly drawn) [CM-10, N-((2S,3R)-1-amino-3-hydroxy-1-oxobutan-2-yl)-1-((S)-1-((S)-2-amino-3-hydroxypropanoyl)pyrrolidine-2-carbonyl)-2-benzylpyrrolidine-2-carboxamide], for which, at NMDA receptor, the Emax was 16%.

Take `COc1ccc(CC2(C(=O)N[C@H](C(N)=O)[C@@H](C)O)CCCN2C(=O)[C@@H]2CCCN2C(=O)[C@@H](N)[C@@H](C)O)cc1` (some centres unmarked) [CM-11]: on NMDA receptor, a half-maximal effect (EC50) was put at 0.013 nM and the Emax came to 9%.

As to `CC(O)C(N)C(=O)N1CCCC1C(=O)N1CCCC1(Cc1cc(Br)cc(Br)c1)C(=O)NC(C(N)=O)C(C)O` (centres unmarked) [CM-12], on NMDA receptor, the midpoint of the response, the EC50, lay at 2.21 nM and the Emax turned out to be 13%.

With `COc1cccc(CC2(C(=O)NC(C(N)=O)C(C)O)CCCN2C(=O)C2CCCN2C(=O)C(N)C(C)O)c1` (centres unmarked) [CM-13], the Emax on NMDA receptor was 10%.

Regarding `COc1cc(CC2(C(=O)NC(C(N)=O)C(C)O)CCCN2C(=O)C2CCCN2C(=O)C(N)C(C)O)cc(OC)c1OC` (centres unmarked) [CM-14], at NMDA receptor, the midpoint of the response, the EC50, lay at 0.443 nM and the Emax is 8%.

For `CC/C(=C(/CC)c1ccc(O)cc1)c1ccc(O)cc1` [DES, reference compound], the “Mean Solubility (N = 3) at pH” value in data set [4] stood at 2.6 ± 2.1.
